Consider 20 molecules from ChEMBL document CHEMBL5120861, “Short peptide pharmacophores developed from protein phosphatase-1 disrupting peptides (PDPs)” (Bioorg Med Chem, 2022).

pEC50: −log10 of the molar value. Activity calls are given as the source filed them. The calls are words filed in the database; no cut-off is given here. Where a SMILES comes first, the peptide text is derived from it. [ ]: non-standard residue; d: D form. 2Nal = N[C@@H](Cc1ccc2ccccc2c1)C(=O)O; Cha = N[C@@H](CC1CCCCC1)C(=O)O; β3hK = NCCCC[C@H](N)CC(=O)O

The species entered for assay [1] is Homo sapiens. As to the kind of experiment: Disruption of PP1 holoenzyme (unknown origin) interaction with protein inhibitor 2 assessed as increase in PP1 phosphatase activity by measuring increase in fluorescence using DiFMUP as substrate at 500 uM enzyme preincubated with I2 for ten mins followed by compound treatment for 20 mins followed by substrate addition by fluorescence based analysis.

Assay [2] in a line: Disruption of PP1 holoenzyme (unknown origin) interaction with protein inhibitor 2 assessed as increase in PP1 phosphatase activity by measuring increase in fluorescence using DiFMUP as substrate enzyme preincubated with I2 for ten mins followed by compound treatment for 20 mins followed by substrate addition by fluorescence based analysis. The arrangement: species or system Homo sapiens.

The pEC50 is −log10 of the EC50, conventionally taken in molar units.

On to `CC(C)C[C@H](NC(=O)[C@@H](N)CCCNC(=N)N)C(=O)N[C@H](C(=O)N[C@@H](Cc1ccccc1)C(=O)O)[C@@H](C)O` (H-RLTF-OH), for which the result in assay [1] was Active.

In the case of `CC(C)[C@@H](NC(=O)[C@@H](Cc1cnc[nH]1)NC(=O)[C@H](N)Cc1ccccc1)C(=O)N[C@H](CCCNC(=N)N)C(=O)O`, the result in assay [1] was Active.

Consider `CC(C)[C@H](NC(=O)[C@@H](N)CCCNC(=N)N)C(=O)NCC(=O)N[C@@H](Cc1ccccc1)C(=O)O` (H-RVGF-OH), for which, in assay [1], the result was Active.

As for `CC(C)[C@H](NC(=O)[C@@H](N)CCCNC(=N)N)C(=O)N[C@@H](CCC(=O)O)C(=O)N[C@@H](Cc1ccccc1)C(=O)O` (H-RVEF-OH), in assay [1], the outcome was Active.

As to Ac-KRVHF-OH, in assay [2], the pEC50 is 5.49.

Take H-RRVHF-OH: the pEC50 in assay [2] is 5.57.

On to Ac-KRVHF-NH2, for which the pEC50 in assay [2] was 5.77.

In the case of `CC(C)[C@H](NC(=O)[C@H](CCCNC(=N)N)NC(=O)[C@@H](N)CCCCN)C(=O)N[C@@H](Cc1cnc[nH]1)C(=O)N[C@@H](CC1CCCCC1)C(N)=O` (H-KRVH[Cha]-NH2), the pEC50 in assay [2] was 4.28.

Consider `CC(C)[C@H](NC(=O)[C@H](CCCNC(=N)N)NC(=O)[C@H](N)CCCCN)C(=O)N[C@@H](Cc1cnc[nH]1)C(=O)N[C@@H](Cc1ccccc1)C(N)=O`, for which the pEC50 in assay [2] is 5.59.

With `CC(=O)N[C@@H](CCCNC(=N)N)C(=O)N[C@H](C(=O)N[C@H](C(=O)N[C@@H](Cc1ccccc1)C(=O)O)[C@@H](C)O)C(C)C` (Ac-RVTF-OH), the pEC50 in assay [2] was under 3.30.

As to `CC(C)[C@H](NC(=O)[C@@H](N)CCCNC(=N)N)C(=O)N[C@H](C(=O)N[C@@H](Cc1ccccc1)C(N)=O)[C@@H](C)O` (H-RVTF-NH2), the pEC50 in assay [2] is 4.00.

With `CC(C)[C@H](NC(=O)[C@H](N)CCCNC(=N)N)C(=O)N[C@H](C(=O)N[C@H](Cc1ccccc1)C(=O)O)[C@@H](C)O` (H-[dR]VT[dF]-OH), the pEC50 in assay [2] was under 3.30.

Turning to H-KHVHF-NH2, the pEC50 in assay [2] was 4.61.

Turning to `CC(C)[C@H](NC(=O)[C@@H](N)CCCNC(=N)N)C(=O)N[C@@H](CO)C(=O)N[C@@H](Cc1ccccc1)C(=O)O` (H-RVSF-OH), the pEC50 in assay [2] is under 3.30.

As to `CC(C)[C@H](NC(=O)[C@@H](N)CCCNC(=N)N)C(=O)N[C@@H](C(=O)N[C@@H](Cc1ccccc1)C(=O)O)[C@H](C)O` (H-RV[dT]F-OH), in assay [2], the pEC50 is under 3.30.

`CC(C)[C@H](NC(=O)[C@H](CCCNC(=N)N)NC(=O)[C@@H](N)CCCCN)C(=O)N[C@@H](Cc1c[nH]cn1)C(=O)N[C@@H](Cc1ccc2ccccc2c1)C(N)=O` (H-KRVH[2Nal]-NH2): the pEC50 in assay [2] is 5.82.

As to `CC[C@H](C)[C@H](NC(=O)[C@@H](NC(=O)[C@H](CCC(=O)O)NC(=O)[C@H](C)NC(=O)[C@H](C)NC(=O)[C@H](CCC(=O)O)NC(=O)[C@H](Cc1ccc(C(=O)c2ccccc2)cc1)NC(=O)[C@H](Cc1ccccc1)NC(=O)[C@@H](NC(=O)[C@@H](NC(=O)[C@H](CCCNC(=N)N)NC(=O)[C@H](C)NC(=O)[C@H](CC(N)=O)NC(=O)[C@H](CCCCN)NC(=O)[C@H](CCCNC(=N)N)NC(=O)[C@H](CCCCN)NC(=O)[C@H](CCCNC(=N)N)NC(=O)[C@H](CCCCN)NC(=O)[C@@H]1CCCN1C(=O)[C@H](CCCNC(=N)N)NC(=O)[C@H](CCCCN)NC(=O)[C@H](CCCNC(=N)N)NC(=O)[C@H](CCCNC(=N)N)NC(C)=O)C(C)C)[C@H](C)O)[C@@H](C)CC)C(N)=O`, the pEC50 in assay [2] was 6.63.

Consider `CC(C)[C@H](NC(=O)[C@H](CCCNC(=N)N)NC(=O)C[C@@H](N)CCCCN)C(=O)N[C@@H](Cc1c[nH]cn1)C(=O)N[C@@H](Cc1ccccc1)C(N)=O` (H-[β3hK]RVHF-NH2), for which the pEC50 in assay [2] was 5.01.

For the molecule `CC(C)[C@H](NC(=O)[C@@H](N)CCCNC(=N)N)C(=O)N[C@@H](CCC(N)=O)C(=O)N[C@@H](Cc1ccccc1)C(=O)O` (H-RVQF-OH), the pEC50 in assay [2] was 3.65.

As to `CC(C)[C@H](NC(=O)[C@@H](N)CCCNC(=N)N)C(=O)N[C@@H](CC(N)=O)C(=O)N[C@@H](Cc1ccccc1)C(=O)O` (H-RVNF-OH), in assay [2], the pEC50 is 3.66.
